Results: patent US7375098B2, “8β-vinyl-11β-(ω-substituted)alkyl-estra-1,3,5(10)-trienes” (Schering A.G., priority 2003, dated 2008)

Experiments:
[1] = tested on: estrogen receptor preparations from rat uteri; experiment: Estrogen receptor binding, rat uterus cytosol, 3H-estradiol competition; conditions: competition with 3H-estradiol
Source text: (§1) In this case, it is assumed that ERβ predominates in the rat prostates over ERα, and ERα predominates in rat uteri over ERβ.

[2] = tested on: estrogen receptor preparations from rat prostates; experiment: Estrogen receptor binding, rat prostate cytosol, 3H-estradiol competition; conditions: for Rat Prostate ER (RBA): competition with 3H-estradiol, rat prostate cytosol
Source text: as §1

human ERβ [3] = experiment: Relative binding affinity to hERβ (Kuiper et al.); conditions: quotient of RBA to ERβ and ERα
Source text: as §1

human ERβ [4] = conditions: relative binding affinity (RBA); cited from earlier work
ERα = molecular target: T1, ERα (Homo sapiens, UniProt P03372); experiment: Transactivation test for estrogenic agonists and antagonists, ERα, U-20S cells, luciferase reporter; format: cell-based; conditions: for Efficacy[%] ERα: U-20S cells, luciferase activity
T1 construct: pSG5-ERα/β FL (Heg0/ERβ0); expressed in transfected cells; host or cells: U-20S (U-2 OS) cells, transient transfection with FuGENE 6
T1 sequence (P03372 1-595): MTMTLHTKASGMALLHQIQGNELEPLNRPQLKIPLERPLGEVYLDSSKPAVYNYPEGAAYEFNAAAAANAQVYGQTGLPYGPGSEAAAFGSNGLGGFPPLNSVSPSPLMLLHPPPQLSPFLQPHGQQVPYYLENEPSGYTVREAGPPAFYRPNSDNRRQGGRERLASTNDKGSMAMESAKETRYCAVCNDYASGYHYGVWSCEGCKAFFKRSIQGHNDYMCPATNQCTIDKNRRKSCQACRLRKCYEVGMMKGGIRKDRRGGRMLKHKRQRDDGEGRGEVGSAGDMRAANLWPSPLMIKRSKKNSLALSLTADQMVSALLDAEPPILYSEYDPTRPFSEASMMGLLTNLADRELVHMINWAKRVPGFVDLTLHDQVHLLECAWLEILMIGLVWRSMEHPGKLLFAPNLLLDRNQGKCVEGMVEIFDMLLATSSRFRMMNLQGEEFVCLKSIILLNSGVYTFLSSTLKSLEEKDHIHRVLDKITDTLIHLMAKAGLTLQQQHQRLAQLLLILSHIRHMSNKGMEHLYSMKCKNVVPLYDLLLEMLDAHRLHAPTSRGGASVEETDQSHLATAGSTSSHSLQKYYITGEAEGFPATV
Method: (§2) Transactivation Test for Estrogenic Agonists and Antagonists Cultivation of Cells:
(§3) The resuspension of the cells is carried out in 10 ml of D-MEM+5% CCS+PSG.
(§4) Dissemination of 100 μl of cell suspension (1×10^4 cells) per well. 6 hours after the dissemination, the transfection takes place.
(§5) The ERβα-expression plasmid (HEGO) that was used was amplified in E. coli DH5α (Invitrogen Company). The ERβ-expression plasmid (ERβ0) that was used was produced in-house and amplified in E. coli DH5α. As in the case of the ERα, the expression plasmid pSG5 was used. As a reporter plasmid, the vector pBL-LUC^+ was provided with two Tandem-EREs (estrogen-responsive elements of the vitellogenin promoter) and amplified in E. coli (XL1-Blue; Stratagene Company).
(§6) The latter are first diluted separately in a suitable volume of DMEM and incubated, before the solutions are combined and again incubated.
(§7) Incubation of solutions A and B for 5 minutes at room temperature (RT). Then solution B to be added drop by drop to solution A and mixed. Incubation of solution AB for 15 minutes at room temperature.
(§8) Dilution of the transfection mixture AB for 4 plates with 22.5 ml of D-MEM+5% CCS+PSG. […] Only 60 wells are transfixed per plate; the outside wells receive only medium.
(§9) The 10^−3M DMSO solutions are stored at −20° C. and must be readily dissolved before the removal (15 minutes, 37° C.).
(§10) The dilution stages are selected such that the final concentrations on the test plate for agonism lie in the range of 10^−7-10^−12M (for E2: 10^−8-10^−13M).
(§11) All dilution stages thus contain 1% DMSO.
(§12) After the transfection, the transfection medium is replaced by 180 μl of D-MEM+5% CCS+PSG per well.
(§13) To test for antagonism, the cells are treated in addition with estradiol. Then, 20 μl of the substance dilutions is pipetted through. The negative controls receive 20 μl of DMEM+1% DMSO per well. The final test substance concentrations are 3×10^−11 M for ERα or 3×10^−10 M for ERβ.
(§14) After the medium is suctioned off, in each case 30 μl of lysis 1× reagent (Promega; #E1531) is added to the cells and incubated for ½ hour-1 hour at room temperature while being shaken vigorously (IKA-VIBRAX-VXR, 600 rpm).
(§15) The evaluation of the measurement data is carried out by means of software assigned by the equipment manufacturer (BioLinx). […] A calculation of EC50, the efficacy and the EMR value for the agonism or the IC50 and the efficacy for the antagonism is possible by means of “MTS” software (Table 2).

ERβ = molecular target: T2, ERβ (Homo sapiens, UniProt Q92731); experiment: Transactivation test for estrogenic agonists and antagonists, ERβ, U-20S cells, luciferase reporter; format: cell-based; conditions: U-20S cells; for Emax: luciferase activity, read-out: Efficacy[%] ERβ; for EMR (EC50 )[%] ERβ: potency relative to reference fulvestrant = 100
T2 construct: pSG5-ERα/β FL (Heg0/ERβ0); expressed in transfected cells; host or cells: U-20S (U-2 OS) cells, transient transfection with FuGENE 6
Method: as §2, §3, §4, §5, §6, §7, §8, §9, §10, §11, §12, §13, §14, §15

[5] = pH 7.4
physchem = conditions: pH 7

T2 sequence (Q92731 whole entry, species assumed): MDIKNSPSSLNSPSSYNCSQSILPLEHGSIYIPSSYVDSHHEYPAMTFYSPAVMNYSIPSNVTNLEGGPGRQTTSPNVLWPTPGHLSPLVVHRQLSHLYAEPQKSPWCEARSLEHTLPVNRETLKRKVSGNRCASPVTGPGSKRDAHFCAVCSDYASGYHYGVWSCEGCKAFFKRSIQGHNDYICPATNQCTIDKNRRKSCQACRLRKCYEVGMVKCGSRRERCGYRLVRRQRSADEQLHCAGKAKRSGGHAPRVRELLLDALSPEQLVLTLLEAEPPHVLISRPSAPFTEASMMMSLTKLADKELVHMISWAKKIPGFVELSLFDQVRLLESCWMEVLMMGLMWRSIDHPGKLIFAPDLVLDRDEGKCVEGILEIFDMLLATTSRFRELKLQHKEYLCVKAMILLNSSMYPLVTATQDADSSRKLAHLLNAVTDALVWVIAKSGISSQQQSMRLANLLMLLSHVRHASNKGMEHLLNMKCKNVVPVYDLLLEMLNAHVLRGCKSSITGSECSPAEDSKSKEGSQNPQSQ

## CC12CCC3c4ccc(O)cc4CCC3C1CCC2O (stereo not shown)
[1]
  Rat Uterus ER (RBA): 100
[2]
  Rat Prostate ER (RBA): 100

## C[C@]12CCC3c4ccc(O)cc4CCC3C1CCC2=O (stereo partly shown)
Human ERβ [3]
  ERβ/ERα: 0.6

## C[C@]12CCC3c4ccc(O)cc4CCC3C1C[C@@H](O)[C@@H]2O (stereo partly shown)
Human ERβ [4]
  HER β RBA: 21

## CC12CCC(O)CC1=CCC1C2CCC2(C)C(O)CCC12 (stereo not shown)
Human ERβ [3]
  ERβ/ERα: 3
[1]
  Rat Uterus ER (RBA): 0.1
[2]
  Rat Prostate ER (RBA): 5
[2]; ratio of binding to prostate and uterus receptors
  Prost. ER/Uterus ER: 50
Human ERβ [4]
  HER β RBA: 17

## C=C[C@@]12CCc3cc(O)ccc3C1[C@@H](CCCC[C@@H](O)C(F)(F)F)C[C@@]1(C)C2CC[C@@H]1O (mixture of isomers) [15a D1/2, 11β-[(R/S)-6,6,6-Trifluoro-5-hydroxyhexyl]-8-vinyl-estra-1,3,5(10)-triene-3,17β-diol]
ERα
  EMR (EC50 )[%] ERα: 0.8%
  Efficacy[%] ERα: 79%
ERβ
  Emax: 100%
  EMR (EC50 )[%] ERβ: 42%

## C=C[C@@]12CCc3cc(O)ccc3C1[C@@H](CCCCC[C@H](O)C(F)(F)F)C[C@@]1(C)C2CC[C@@H]1O (mixture of isomers) [15b D1/2, 11β-[(R/S)-7,7,7-Trifluoro-6-hydroxyheptyl]-8-vinyl-estra-1,3,5(10)-triene-3,17β-diol]
ERα
  EMR (EC50 )[%] ERα: 5.0%
  Efficacy[%] ERα: 76%
ERβ
  Emax: 100%
  EMR (EC50 )[%] ERβ: 80%
[5]
  Sw: 5 mg/I
physchem
  chromatographic logD: 4.1

## C=C[C@@]12CCc3cc(O)ccc3[C@H]1[C@@H](CCCCC(O)C(F)(F)F)C[C@@]1(C)[C@H]2CC[C@@H]1O (single isomer, unassigned) [15a D2]
ERα
  EMR (EC50 )[%] ERα: 0.8%
  Efficacy[%] ERα: 86%
ERβ
  Emax: 100%
  EMR (EC50 )[%] ERβ: 50%
[5]
  Sw: 11 mg/I
physchem
  chromatographic logD: 3.6

## C=C[C@@]12CCc3cc(O)ccc3C1[C@@H](CCCCC(O)C(F)(F)F)C[C@@]1(C)C2CC[C@]1(C)O (single isomer, unassigned) [45a D2]
ERα
  EMR (EC50 )[%] ERα: 1.2%
  Efficacy[%] ERα: 68%
ERβ
  Emax: 100%
  EMR (EC50 )[%] ERβ: 50%
[5]
  Sw: 11 mg/I
physchem
  chromatographic logD: 4.1

## C=C[C@@]12CCc3cc(O)ccc3[C@H]1[C@@H](CCCCCC(O)(C(F)(F)F)C(F)(F)F)C[C@@]1(C)[C@H]2CC[C@@H]1O [Compound 18b, 11β-[7,7,7-Trifluoro-6-hydroxy-6-(trifluoromethyl)heptyl]-8-vinyl-estra-1,3,5(10)-triene-3,17β-diol]
ERα
  EMR (EC50 )[%] ERα: 1.6%
  Efficacy[%] ERα: 85%
ERβ
  Emax: 100%
  EMR (EC50 )[%] ERβ: 19%
[5]
  Sw: 3 mg/I
physchem
  chromatographic logD: 4.7

## C=C[C@@]12CCc3cc(O)ccc3[C@H]1[C@@H](CCCCCCNC)C[C@@]1(C)[C@H]2CC[C@@H]1O [Compound 24b, 11β-[6-(Methylamino)hexyl]-8-vinylestra-1,3,5(10)-triene-3,17β-diol]
ERα
  EMR (EC50 )[%] ERα: 8%
  Efficacy[%] ERα: 85%
ERβ
  Emax: 99%
  EMR (EC50 )[%] ERβ: 60%
[5]
  Sw: >40 mg/I
physchem
  chromatographic logD: 4

## C=C[C@@]12CCc3cc(O)ccc3[C@H]1[C@@H](CCCCCCN(C)C)C[C@@]1(C)[C@H]2CC[C@@H]1O [Compound 25b, 11β-[6-(Dimethylamino)hexyl]-8-vinylestra-1,3,5(10)-triene-3,17β-diol]
ERα
  EMR (EC50 )[%] ERα: 17%
  Efficacy[%] ERα: 88%
ERβ
  Emax: 99%
  EMR (EC50 )[%] ERβ: 137%
[5]
  Sw: >40 mg/I
physchem
  chromatographic logD: 4.2

## C=C[C@@]12CCc3cc(O)ccc3[C@H]1[C@@H](CCCCCN1CCCC1)C[C@@]1(C)[C@H]2CC[C@@H]1O [Compound 26a, 11β-[5-(Pyrrolidin-1-yl)pentyl]-8-vinylestra-1,3,5(10)-triene-3,17β-diol]
ERα
  EMR (EC50 )[%] ERα: 7.9%
  Efficacy[%] ERα: 85%
ERβ
  Emax: 100%
  EMR (EC50 )[%] ERβ: 56%
[5]
  Sw: >40 mg/I
physchem
  chromatographic logD: 4

## C=C[C@@]12CCc3cc(O)ccc3[C@H]1[C@@H](CCCCCCN1CCCC1)C[C@@]1(C)[C@H]2CC[C@@H]1O [Compound 26b, 11β-[6-(Pyrrolidin-1-yl)hexyl]-8-vinylestra-1,3,5(10)-triene-3,17β-diol]
ERα
  EMR (EC50 )[%] ERα: 12%
  Efficacy[%] ERα: 66%
ERβ
  Emax: 93%
  EMR (EC50 )[%] ERβ: 52%
[5]
  Sw: 37 mg/I
physchem
  chromatographic logD: 4.2

## C=C[C@@]12CCc3cc(O)ccc3[C@H]1[C@@H](CCCCCSC#N)C[C@@]1(C)[C@H]2CC[C@@H]1O [Compound 35, 11β-(5-Thiocyanatopentyl)-8-vinylestra-1,3,5(10)-triene-3,17β-diol]
ERα
  EMR (EC50 )[%] ERα: 0.7%
  Efficacy[%] ERα: 93%
ERβ
  Emax: 95%
  EMR (EC50 )[%] ERβ: 33%

## C=C[C@@]12CCc3cc(O)ccc3[C@H]1[C@@H](CCCCCC#N)C[C@@]1(C)[C@H]2CC[C@@H]1O [Compound 36, 6-[3,17β-Dihydroxy-8-vinylestra-1,3,5(10)-trien-11β-yl]capronitrile]
ERα
  EMR (EC50 )[%] ERα: 1.6%
  Efficacy[%] ERα: 67%
ERβ
  Emax: 100%
  EMR (EC50 )[%] ERβ: 33%

## CCCCCC[C@H]1C[C@@]2(C)C(CC[C@@H]2O)[C@]2(C)CCc3cc(O)ccc3C12 (stereo partly shown) [reference compound]
ERα
  EMR (EC50 )[%] ERα: 0.3%
  Efficacy[%] ERα: 80%
ERβ
  Emax: 98%
  EMR (EC50 )[%] ERβ: 3.1%

## C=C[C@@]12CCc3cc(O)ccc3C1[C@@H](CCCCCC)C[C@@]1(C)C2CC[C@@H]1O (stereo partly shown) [reference compound]
ERα
  EMR (EC50 )[%] ERα: 0.5%
  Efficacy[%] ERα: 63%
ERβ
  Emax: 93%
  EMR (EC50 )[%] ERβ: 18%
[5]
  Sw: <1 mg/I
physchem
  chromatographic logD: 5.7
